Earlier results as cited in publication PMC12298827, “Subchronic Toxicities of Four Per- and Polyfluoroalkyl Substances (PFASs) by Oral Exposure in Sprague–Dawley Rats” (Toxics, 2025).

System: male and female rats
Conditions: cited from earlier work

SMILES | Effect on liver weights or bodyweights (doses of up to 600 mg/kg-day, 90-day oral gavage, male or female rats ref 21) | Effect on absolute and relative liver weights (28- and 90-day oral gavage ref 16)
O=S(=O)(O)C(F)(F)C(F)(F)C(F)(F)C(F)(F)F [perfluorobutane sulfonate] | did not affect the liver weights or bodyweights | –
N.O=C(O)C(F)(F)C(F)(F)C(F)(F)F [ammonium perfluorobutyrate] | – | significant increases in the absolute and relative liver weights only in male rats
